Laboratory results reported in patent publication US20240415804A1, “METHOD OF TREATING PANCREATIC CANCER” (University of South Florida, priority 2022, published 2024).

System: miR-155
Experiment: miR-155 gene expression by RT-qPCR in UN-KC-6141 cells
Assay type: cell-based, mouse
Conditions: API 40 μM, 24 h, vs DMSO vehicle
Protocol: MiR-155 is known to be overexpressed in different cancers, including PC^21, 23. The inventors first assessed whether apigenin could modulate the expression of miR-155 in PC cells. Murine PC cell lines Panc02 and UN-KC-6141 as well as the human PC cell line MiaPaCa-2 were treated with API (40 μM) or DMSO vehicle for 24 h and the expression of miR-155 was examined using RT-qPCR assay. […] Since API is known to inhibit the growth of cancer cells, including PC cells^39-43, 47-50, the same PC cell lines were treated with API (40 μM) or DMSO (vehicle) for 24 h and examined cell viability using MTT assay. […] Moreover, Panc02 and UN-KC-6141 cells were then treated with API at a dose dependent concentration (10, 20, 30, 40, 50 μM) and detected apoptosis using flow cytometry (Annexin V and PI).
miR-155 is implicated in the development of pancreatic tumors from pancreatic intraepithelial neoplasia (PanIN) lesions, and is overexpressed in PC^23. The inventors examined whether the depletion of miR-155 modulated PC viability. Murine and human PC cell lines were transfected with miR-155 inhibitor (i.e., MMU-MIR-155-5P/HSA-MIR-155-5P) and scrambled miRNA at a concentration of 100 nM for 24 h and cell viability determined using an MTT assay. The expression of miR-155 was examined using an RT-qPCR assay as well. […]

`O=c1cc(-c2ccc(O)cc2)oc2cc(O)cc(O)c12` [API, 40,5,7-Trihydroxyflavone, 5,7-Dihydroxy-2-(4-hydroxyphenyl)-4-benzopyrone] was tested, and the miR-155 gene expression was “significantly suppressed”.
